# Measurements as given in US7398119B2, “Assessing blood brain barrier dynamics or identifying or measuring selected substances, including ethanol or toxins, in a subject by analyzing Raman spectrum signals” (Childrens Hospital Los Angeles, priority 1998, dated 2008).
# Columns and labels:
# [1] = blood alcohol and brain alcohol levels; cited from earlier work
# [2] = Correlation of aqueous humor glucose with rising blood glucose after ketamine/xylazine anesthesia; type: in vivo, New Zealand white rabbits; details: xylazine 7.5 mg/kg with ketamine 50 mg/kg, single intramuscular injection
# Method: Nine female New Zealand white rabbits were used for this part of the study. They were anesthetized with ketamine (50 mg/kg) and xylazine (7.5 mg/kg) given as a single intramuscular injection. Xylazine blocks release of insulin from the pancreas and causes blood glucose to rise (K. Chalabi et al., Ophthalmic Res. 19, 289 (1987); J. Arnbjerg et al., Ophthalmic Res. 22, 265 (1990)).
# Blood samples were taken from the central ear arteries at various times following the injection of anesthetic once the animals were adequately anesthetized. Whole blood was immediately measured for glucose concentration with a commercial glucometer (Glucometer Elite, Bayer). In most instances two measurements were made. The average measurements are reported. If the measurements differed by more than 20%, a third measurement was made. […]
# At various times after induction of anesthesia, samples of aqueous humor were taken. […] Aqueous humor glucose concentration was measured with the glucometer in a manner similar to the blood. […]
# Average blood glucose concentrations for each animal were plotted against time after anesthetic injection. Since it was not possible to obtain blood samples simultaneous with aqueous humor samples, a best-fit second-order polynomial was calculated for each animal. […] Aqueous humor glucose concentration was then plotted against the calculated simultaneous blood glucose concentration for all animals. […]
Compound,concentrations that may be lethal [1],effect on blood glucose over time [2]
"CCO [alcohol, ethanol]",above 1%,
Cc1cccc(C)c1N=C1NCCCS1 [xylazine],,steadily rises at variable rates
